# Experimental data as given in patent US20090105136A1, “NPY Y2 Agonist for Use as Therapeutic Agent for Disease Accompanied by Diarrhea” (priority 2005, published 2009).
# System: mice (C57BL/6)
# Experiment: Motility of stomach and small intestine (charcoal transit, GI motility)
# Format: in vivo
# Details: 0.3 mg/kg or 3 mg/kg intraperitoneal; 30 minutes after oral charcoal; vs vehicle control mice; FIG. 1
# Description: At the same time, control mice (vehicle) to which only a vehicle was administered were prepared, and the same test was carried out using these mice. The motility of stomach and small intestine was measured as follows. That is, charcoal powder was suspended in a 0.5% methyl cellulose solution and the resulting suspension was orally administered to the mice. After 30 minutes, the distance that the charcoal entering into the stomach traveled in the intestinal tract was measured by dissection. At the same time, the total length of the small intestine from the pyloric portion of stomach to the beginning of the cecum was also measured, and the ratio (%) of the distance that the charcoal traveled to the total length of the small intestine was plotted in a graph as a GI (gastrointestinal) motility.
substance,measurement,value
neuropeptide Y [NPY],GI (gastrointestinal) motility: ratio of distance the charcoal traveled to total length of small intestine,lower than that of the control mice
